≈ marks a conversion by molar mass, not a printed value. Where two headings read alike, the source gives them in different places. Peptide text beside a SMILES is read from it.
What was measured:
[1] = system: S. aureus (MRSA) biofilm; experiment: Antibiofilm activity (crystal violet); assay type: cell-based, Staphylococcus aureus; conditions: RKW at ½ and ¼ MIC (25 and 12.5 μM); OD 630 nm vs control; three independent experiments; ANOVA p < 0.01; greatest inhibition at ¼ MIC
Procedure: (§1) Therefore, the minimum inhibitory concentration (MIC) and MBC were evaluated. […] Subsequently, the antibiofilm activity of the peptide was tested according to Festa et al.. Specifically, two different concentrations of peptide were used, corresponding to ½ and ¼ of the estimated MIC value, which guarantee the optimal bacterial growth conditions necessary to allow biofilm production. Biofilm production (%) was calculated based on Optical Density (measured at 630 nm) outputs, compared to the control group.
(§2) To compare the percentages of biofilm production across different samples, a one-way analysis of variance (ANOVA) was conducted using Prism v. 10.0 (GraphPad, Graph-Pad Software, La Jolla, CA, USA). Significant differences between sample pairs were identified with Tukey’s post hoc test (p < 0.05).

[2] = system: P. aeruginosa biofilm; experiment: Antibiofilm activity (crystal violet); assay type: cell-based, Pseudomonas aeruginosa; conditions: RKW at ½ and ¼ MIC (10 and 5 μM); OD 630 nm vs control; three independent experiments; ANOVA p < 0.05; greatest inhibition at ¼ MIC
Procedure: as §1, §2

[3] = system: Staphylococcus aureus (MRSA); assay type: cell-based; conditions: for MIC: broth microdilution, 96-well, RKW 1-75 μM
Procedure: as §1

[4] = system: Enterococcus faecium (VREfm); assay type: cell-based; conditions: broth microdilution, 96-well, RKW 1-75 μM
Procedure: as §1

[5] = system: Acinetobacter baumannii (CRAB); assay type: cell-based
Procedure: as §1

[6] = system: Staphylococcus epidermidis ATCC 12228; experiment: Quantitative suspension test, bactericidal activity, BS EN 1276:2019; assay type: cell-based; design: key to Bactericidal activity verdict: Active: For bacteria: ACTIVE if log R ≥ 5 according to BS EN 1276:2019; Not active: For bacteria: ACTIVE if log R ≥ 5 according to BS EN 1276:2019; conditions: 60 min, 37 °C, BSA 0.3 g/L
Source text: (§3) The method is based on the suspension test according to BS EN 1276:2019, which specifies a quantitative suspension analysis for the evaluation of the bactericidal activity of chemical disinfectants and antiseptics used in food, industrial, domestic, and institutional areas against a panel of microorganisms under conditions that more closely simulate practical use. Briefly, S. aureus ATCC 6538, P. aeruginosa ATCC 15442, and Staphylococcus epidermidis ATCC 12228 were used as test organisms at a bacterial concentration of 1.0 × 10^8 colony-forming units (CFU) per mL (CFU/mL). In the test, BSA (Bovine Serum Albumin) (0.3 g/L) was used as an interfering substance to mimic clean conditions. […] The reaction mixture was incubated at 37 °C for 60 min before transferring each sample to a tube containing a neutralizer solution consisting of 30 g/L polysorbate 80, 1 g/L sodium thiosulfate, 3 g/L lecithin, 1 g/L tryptone, 8.5 g/L NaCl, 100 mL/L phosphate buffer and water. The negative control (untreated cells) was prepared using PBS instead of biocides. The solutions were then plated onto Tryptone Soy Agar (TSA) and incubated at 37 °C for 48 h to determine the logarithmic CFU/mL reduction, according to the following Equation:(2) log R = log (N0) − log (Na) where R refers to the reduction in viability, N refers to the number of CFU/mL in the test mixture at the beginning of the contact time, and Na refers to the number of CFU/mL in the test mixture at the end of the contact time. […] The test method and the minimum requirements for fungicidal activity of chemical disinfectant and antiseptic products were performed according to BS EN 1650:2019. The fungicidal activity was studied using the vegetative cells of Candida albicans ATCC 10231 and the spores of Aspergillus brasiliensis ATCC 16404 as test organisms. […] The mixture was maintained at 37 °C for a contact time of 60 min. At the end of this contact time, an aliquot was taken, and the fungicidal activity was immediately neutralized with a solution consisting of 30 g/L polysorbate 80, 1 g/L sodium thiosulfate, 3 g/L lecithin, 1 g/L tryptone, 8.5 g/L NaCl, 100 mL/L phosphate buffer and water. The samples were then plated onto malt extract agar (MEA) and incubated at 30 °C for 48 h to determine the numbers of surviving fungi as the logarithmic CFU/mL reduction, calculated according to Equation (2).

[7] = system: Staphylococcus aureus ATCC 6538; experiment: as above; assay type: cell-based; design: key to Bactericidal activity verdict: Active: For bacteria: ACTIVE if log R ≥ 5 according to BS EN 1276:2019; Not active: For bacteria: ACTIVE if log R ≥ 5 according to BS EN 1276:2019; conditions: 60 min, 37 °C, BSA 0.3 g/L
Source text: as §3

[8] = system: Pseudomonas aeruginosa ATCC 15442; experiment: as above; assay type: cell-based; design: key to Bactericidal activity verdict: Active: For bacteria: ACTIVE if log R ≥ 5 according to BS EN 1276:2019; Not active: For bacteria: ACTIVE if log R ≥ 5 according to BS EN 1276:2019; conditions: 60 min, 37 °C, BSA 0.3 g/L
Source text: as §3

[9] = inoculum 5 × 10^3 CFU/mL (3 Log)
[10] = inoculum 5 × 10^5 CFU/mL (5 Log)

Compound: CC[C@H](C)[C@H](NC(=O)[C@H](Cc1c[nH]c2ccccc12)NC(=O)[C@H](CCCCN)NC(=O)[C@@H](N)CCCNC(=N)N)C(=O)N[C@@H](CC(C)C)C(=O)N[C@@H](CCCCN)C(=O)N[C@@H](Cc1c[nH]c2ccccc12)C(=O)N[C@@H](CC(C)C)C(=O)N[C@@H](CCCNC(=N)N)C(=O)N[C@H](C(=O)N[C@@H](Cc1c[nH]c2ccccc12)C(=O)N[C@@H](CCCCN)C(=O)N[C@@H](CCCCN)C(N)=O)[C@@H](C)O [RKW] (H-RKWILKWLRTWKK-NH2; N-terminus assumed)
- Biofilm production [1]: significantly inhibited the biofilm production
- Biofilm production [2]: significantly inhibited the biofilm production
- MBC [3]: 50 µM (≈ 92.1 µg/mL)
- MIC [3, 9]: 50 µM (≈ 92.1 µg/mL)
- MIC [3, 10]: 50 µM (≈ 92.1 µg/mL)
- MIC [4, 9]: 20 µM (≈ 36.8 µg/mL)
- MIC [4, 10]: 20 µM (≈ 36.8 µg/mL)
- MBC [5]: 50 µM (≈ 92.1 µg/mL)
- Bactericidal activity verdict ([6]; RKW 5 µM): Na = 3.70 × 10^2 log Na = 2.57 log R = 4.71 Not active
- Na (CFU/mL at the end of the contact time) ([6]; RKW 5 µM): 3.70 × 10^2 CFU/mL
- Bactericidal activity verdict ([6]; RKW 10 µM): Na = 2.40 × 10^2 log Na = 2.38 log R = 4.90 Not active
- Na (CFU/mL at the end of the contact time) ([6]; RKW 10 µM): 2.40 × 10^2 CFU/mL
- Bactericidal activity verdict ([6]; RKW 20 µM): Na = 1.60 × 10^2 log Na = 2.20 log R = 5.08 Active
- Na (CFU/mL at the end of the contact time) ([6]; RKW 20 µM): 1.60 × 10^2 CFU/mL
- Bactericidal activity verdict ([6]; RKW 50 µM): Na = 1.60 × 10^2 log Na = 2.20 log R = 5.08 Active
- Na (CFU/mL at the end of the contact time) ([6]; RKW 50 µM): 1.60 × 10^2 CFU/mL
- Bactericidal activity verdict ([6]; RKW 100 µM): Na = 1.60 × 10^2 log Na = 2.20 log R = 5.08 Active
- Na (CFU/mL at the end of the contact time) ([6]; RKW 100 µM): 1.60 × 10^2 CFU/mL
- Bactericidal activity verdict ([7]; RKW 5 µM): Na = 1.11 × 10^5 log Na = 5.10 log R = 2.25 Not active
- Na (CFU/mL at the end of the contact time) ([7]; RKW 5 µM): 1.11 × 10^5 CFU/mL
- Bactericidal activity verdict ([7]; RKW 10 µM): Na = 5.10 × 10^4 log Na = 4.71 log R = 2.59 Not active
- Na (CFU/mL at the end of the contact time) ([7]; RKW 10 µM): 5.10 × 10^4 CFU/mL
- Bactericidal activity verdict ([7]; RKW 20 µM): Na= 1.47 × 10^4 log Na = 4.20 log R = 3.13 Not active
- Na (CFU/mL at the end of the contact time) ([7]; RKW 20 µM): 1.47 × 10^4 CFU/mL
- Na (CFU/mL at the end of the contact time) ([7]; RKW 50 µM): 1.47 × 10^4 CFU/mL
- Na (CFU/mL at the end of the contact time) ([7]; RKW 100 µM): 1.47 × 10^4 CFU/mL
- Bactericidal activity verdict ([8]; RKW 5 µM): Active
- Na (CFU/mL at the end of the contact time) ([8]; RKW 5 µM): < 1.40 × 10^2 CFU/mL
- Bactericidal activity verdict ([8]; RKW 10 µM): Active
- Na (CFU/mL at the end of the contact time) ([8]; RKW 10 µM): < 1.40 × 10^2 CFU/mL
- Bactericidal activity verdict ([8]; RKW 20 µM): Active
- Na (CFU/mL at the end of the contact time) ([8]; RKW 20 µM): < 1.40 × 10^2 CFU/mL
- Bactericidal activity verdict ([8]; RKW 50 µM): Active
- Na (CFU/mL at the end of the contact time) ([8]; RKW 50 µM): < 1.40 × 10^2 CFU/mL
- Bactericidal activity verdict ([8]; RKW 100 µM): Active
- Na (CFU/mL at the end of the contact time) ([8]; RKW 100 µM): < 1.40 × 10^2 CFU/mL
